As usually defined, the Ki is a dissociation constant, usually derived from enzyme kinetics or from competition with a known ligand. Lower therefore signals a stronger hold on the target.

Results on 15 compounds are retold here after patent US7968577B2 (Bristol-Myers Squibb Company, priority 2006, dated 2011).

This assay deals with T1, human full-length glucocorticoid receptor (Homo sapiens, UniProt P04150).
T1 construct: recombinantly expressed human full-length glucocorticoid receptor; purchased PanVera Co., Madison, Wis; P2816
T1 sequence (P04150 1-777): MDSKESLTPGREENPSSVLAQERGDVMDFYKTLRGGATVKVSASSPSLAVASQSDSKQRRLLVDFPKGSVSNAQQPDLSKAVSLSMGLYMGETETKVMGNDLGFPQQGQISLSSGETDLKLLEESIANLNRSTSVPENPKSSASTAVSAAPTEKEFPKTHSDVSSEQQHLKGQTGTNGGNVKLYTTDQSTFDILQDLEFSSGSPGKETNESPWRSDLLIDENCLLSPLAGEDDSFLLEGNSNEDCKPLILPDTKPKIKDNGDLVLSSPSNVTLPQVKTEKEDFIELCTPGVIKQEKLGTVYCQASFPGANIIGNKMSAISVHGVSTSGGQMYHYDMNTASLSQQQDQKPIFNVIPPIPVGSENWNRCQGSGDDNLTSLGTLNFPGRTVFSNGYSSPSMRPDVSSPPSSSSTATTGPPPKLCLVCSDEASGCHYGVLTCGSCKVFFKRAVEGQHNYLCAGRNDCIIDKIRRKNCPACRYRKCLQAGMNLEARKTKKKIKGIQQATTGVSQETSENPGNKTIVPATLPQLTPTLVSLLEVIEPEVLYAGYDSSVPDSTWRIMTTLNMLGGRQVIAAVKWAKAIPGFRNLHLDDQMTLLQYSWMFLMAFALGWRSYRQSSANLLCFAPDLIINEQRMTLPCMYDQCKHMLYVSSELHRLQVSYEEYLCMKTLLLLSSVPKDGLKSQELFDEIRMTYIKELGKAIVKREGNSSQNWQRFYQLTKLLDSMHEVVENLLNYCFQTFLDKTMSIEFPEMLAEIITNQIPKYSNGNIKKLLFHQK
Description: Glucocorticoid Receptor Binding Assay (II), fluorescence polarization competitor kit (Fluormone GS1). To be noted: GR Binding Assay (II). As for the experimental part: Glucocorticoid Receptor Binding Assay (II)^b
In order to measure the binding of compounds on the glucocorticoid receptor a commercially available kit was used (Glucocorticoid receptor competitor assay kit, PanVera Co., Madison, Wis., P2816). Briefly, a cell lysate containing recombinantly expressed human full-length glucocorticoid receptor was mixed with a fluorescently labeled glucocorticoid (1 nM Fluormone GS1) in the presence or absence of test compound. After one hour at room temperature, the fluorescence polarization (FP) of the samples were measured.
In general terms: Fluorescence polarisation rises when a labelled molecule tumbles more slowly, as on binding a larger partner.

As for `COc1ccc([C@@H](c2ccccc2)C(C)(C)C(=O)NC2CC2)cc1` [Example 270, (3R)-N-cyclopropyl-2,2-dimethyl-3-(4-(methyloxy)phenyl)-3-phenylpropanamide], the Ki was determined as 2000 nM.
The compound `CC(C)(C)OC(=O)N1CCN(c2ccc(C(c3ccccc3)C(C)(C)C(=O)Nc3nccs3)cc2)CC1` (stereo not drawn) [Example 239, 2,2-dimethylethyl 4-(4-(2,2-dimethyl-3-oxo-1-phenyl-3-(1,3-thiazol-2-ylamino)propyl)phenyl)-1-piperazinecarboxylate] showed a Ki of 324 nM.
Under `CC(C)(C(=O)Nc1nccs1)C(c1ccc(Cl)cc1)c1ccc(N2CCOCC2)cc1` (stereo not drawn) [Example 232, 3-(4-chlorophenyl)-2,2-dimethyl-3-(4-(4-morpholinyl)phenyl)-N-1,3-thiazol-2-ylpropanamide] stands 14.5 nM.
Compound `COc1ccc(C(c2ccccc2)C(C)(C)C(=O)Nc2nncs2)c(F)c1` (stereo not drawn) [Example 280, 3-(2-fluoro-4-(methyloxy)phenyl)-2,2-dimethyl-3-phenyl-N-1,3,4-thiadiazol-2-ylpropanamide] registered an inhibitory constant (Ki) of 100 nM.
In turn, `CC(C)(C(=O)Nc1ncns1)[C@@H](c1ccccc1)c1ccc(O)cc1` [Example 342, (3S)-3-(4-hydroxyphenyl)-2,2-dimethyl-3-phenyl-N-1,2,4-thiadiazol-5-ylpropanamide] returned a Ki of 8.1 nM.
With `COc1ccc([C@H](c2ccccc2)C(C)(C)C(=O)NC2CC2)cc1` [Example 269, (3S)-N-cyclopropyl-2,2-dimethyl-3-(4-(methyloxy)phenyl)-3-phenylpropanamide], the Ki amounted to 1300 nM.
Compound `CC(C)(C(=O)Nc1nccs1)C(c1ccccc1)c1ccc(Cl)cc1` (stereo not drawn) [Example 306, 3-(4-chlorophenyl)-2,2-dimethyl-3-phenyl-N-1,3-thiazol-2-ylpropanamide] showed an inhibition constant Ki of 26.3 nM.
In turn, `CC(C)(C(=O)Nc1nncs1)C(c1ccccc1)c1ccc(N2CCCC2)cc1` (stereo not drawn) [Example 237, 2,2-dimethyl-3-phenyl-3-(4-(1-pyrrolidinyl)phenyl)-N-1,3,4-thiadiazol-2-ylpropanamide] yielded an inhibition constant (Ki) of 13.6 nM.
In the case of `CC(=O)c1cccc(C(c2ccccc2)C(C)(C)C(=O)Nc2nccs2)c1` (stereo not drawn) [Example 370, 3-(3-acetylphenyl)-2,2-dimethyl-3-phenyl-N-1,3-thiazol-2-ylpropanamide], the Ki is 60.9 nM.
For the compound `CC(C)(C(=O)Nc1nccs1)C(C)(c1ccccc1)c1ccccc1` [Example 316, 2,2-dimethyl-3,3-diphenyl-N-1,3-thiazol-2-ylbutanamide], the Ki was 472 nM.
In the case of `CC(C)(C(=O)Nc1nncs1)C(c1ccccc1)c1ccc(Br)c(F)c1` (stereo not drawn) [Example 315, 3-(4-bromo-3-fluorophenyl)-2,2-dimethyl-3-phenyl-N-1,3,4-thiadiazol-2-ylpropanamide], the affinity corresponds to a Ki of 10.9 nM.
Under `CC(C)(C(=O)Nc1nccs1)C(c1ccc(F)cc1)c1ccc(N2CCOCC2)cc1` (stereo not drawn) [Example 222, 3-(4-Fluorophenyl)-2,2-dimethyl-3-(4-(4-morpholinyl)phenyl)-N-1,3-thiazol-2-ylpropanamide] stands 12.6 nM; under `Cc1csc(NC(=O)C(C)(C)[C@@H](c2ccccc2)c2ccc(O)cc2)n1` [Example 329, (3S)-3-(4-hydroxyphenyl)-2,2-dimethyl-N-(4-methyl-1,3-thiazol-2-yl)-3-phenylpropanamide], 16.8 nM; under `CC(C)(C(=O)Nc1nccs1)C(c1ccccc1)c1ccc(Nc2ccc(F)cc2)cc1` (stereo not drawn) [Example 243, 3-(4-((4-fluorophenyl)amino)phenyl)-2,2-dimethyl-3-phenyl-N-1,3-thiazol-2-ylpropanamide], 29.1 nM.
Consider `COc1ccc([C@H](c2ccccc2)C(C)(C)C(=O)Nc2nncs2)cc1Br` [Example 287, (3S)-3-(3-bromo-4-(methyloxy)phenyl)-2,2-dimethyl-3-phenyl-N-1,3,4-thiadiazol-2-ylpropanamide], for which the inhibition constant (Ki) came to 14.7 nM.
